The supplement of paper PMC5908809

Key:
[1] = system: normal NK cells expanded with K562-aAPC; test: percent inhibition of viability; higher = more inhibition; details: 72 h, IL-2 2.5 ng/mL
Method: (§1)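 Drug sensitivity and resistance testing on K562-aAPC-expanded normal NK cells: 5 concentrations (10-fold steps over a 10,000-fold range), 72 h at 37 °C, viability by CellTiter-Glo normalised to DMSO and benzethonium chloride controls; DSS from the fitted curve.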

[2] = system: NK-92 (IL-2 2.5 ng/mL); test: as above; details: 72 h
[3] = system: KHYG-1 (IL-2 2.5 ng/mL); test: as above; details: 72 h
[4] = system: DERL-7 (IL-2 2.5 ng/mL); test: as above; details: 72 h
[5] = system: normal primary NK cells, pool 1 (3 donors) (IL-2 2.5 ng/mL); test: as above; details: 72 h
[6] = system: YT (IL-2 2.5 ng/mL); test: as above; details: 72 h
[7] = system: normal primary NK cells, pool 2 (3 donors) (IL-2 2.5 ng/mL); test: as above; details: 72 h
[8] = system: IMC-1 (IL-2 20 ng/mL); test: as above; details: 72 h
[9] = system: KAI3 (IL-2 2.5 ng/mL); test: as above; details: 72 h
[10] = system: NKL (IL-2 2.5 ng/mL); test: as above; details: 72 h
[11] = system: normal primary NK cells, pool 3 (3 donors) (IL-2 2.5 ng/mL); test: as above; details: 72 h
[12] = system: NK-YS (IL-2 2.5 ng/mL); test: as above; details: 72 h
[13] = system: normal primary NK cells, pool 1 (3 donors), resting (IL-2 0 ng/mL); test: as above; details: 72 h
[14] = system: SNK-6 (IL-2 2.5 ng/mL); test: as above; details: 72 h
[15] = system: normal NK cells expanded with K562-aAPC; test: drug sensitivity score (DSS) (DSS units); higher = more sensitive; extreme values may be limits of the assay; details: 72 h; IL-2 2.5 ng/mL
Method: as §1

[16] = system: NK-92 (IL-2 2.5 ng/mL); test: as above; details: 72 h
[17] = system: KHYG-1 (IL-2 2.5 ng/mL); test: as above; details: 72 h
[18] = system: DERL-7 (IL-2 2.5 ng/mL); test: as above; details: 72 h
[19] = system: normal primary NK cells, pool 1 (3 donors) (IL-2 2.5 ng/mL); test: as above; details: 72 h
[20] = system: YT (IL-2 2.5 ng/mL); test: as above; details: 72 h
[21] = system: normal primary NK cells, pool 2 (3 donors) (IL-2 2.5 ng/mL); test: as above; details: 72 h
[22] = system: IMC-1 (IL-2 20 ng/mL); test: as above; details: 72 h
[23] = system: KAI3 (IL-2 2.5 ng/mL); test: as above; details: 72 h
[24] = system: NKL (IL-2 2.5 ng/mL); test: as above; details: 72 h
[25] = system: normal primary NK cells, pool 3 (3 donors) (IL-2 2.5 ng/mL); test: as above; details: 72 h
[26] = system: NK-YS (IL-2 2.5 ng/mL); test: as above; details: 72 h
[27] = system: normal primary NK cells, pool 1 (3 donors), resting (IL-2 0 ng/mL); test: as above; details: 72 h
[28] = system: SNK-6 (IL-2 2.5 ng/mL); test: as above; details: 72 h

O=C(/C=C/c1cccnc1)NCCCCC1CCN(C(=O)c2ccccc2)CC1 [Daporinad] (max concentration tested 1000 nM)
percent inhibition of viability [%]
Details | 0.1 nM | 1 nM | 10 nM | 100 nM | 1000 nM
[1] | -5.42 | -8.02 | 95.3 | 98.9 | 99.5
[2] | -12.4 | -11 | 78.5 | 107 | 110
[3] | -4.62 | 0.47 | 102 | 108 | 110
[4] | -1.42 | 36.4 | 98.7 | 99.8 | 101
[5] | 3.25 | 78.4 | 97.4 | 98.2 | 98.6
[6] | -3.84 | 3.35 | 72 | 106 | 109
[7] | 1.47 | 71.4 | 96.2 | 96.4 | 95.7
[8] | -4.3 | -0.58 | 95.2 | 101 | 99.6
[9] | 0.04 | 4.42 | 89.6 | 104 | 107
[10] | -7.99 | 8.6 | 96.8 | 106 | 109
[11] | 0.86 | 57.3 | 98.6 | 99.3 | 100
[12] | -0.02 | 65.7 | 101 | 107 | 109
[13] | 19.1 | 78.8 | 93.6 | 93.4 | 94.4
[14] | -2.25 | 67.5 | 98.8 | 101 | 101

Details | drug sensitivity score
[15] | 29.2
[16] | 26.9
[17] | 30.7
[18] | 35.4
[19] | 39.6
[20] | 26.6
[21] | 37.9
[22] | 29.8
[23] | 29.3
[24] | 31.6
[25] | 37.3
[26] | 38.1
[27] | 40.4
[28] | 38.3

CCN(CC)C(=S)SSC(=S)N(CC)CC [Disulfiram] (max concentration tested 100000 nM)
percent inhibition of viability [%]
Details | 10 nM | 100 nM | 1000 nM | 10000 nM | 100000 nM
[1] | -4.71 | 1.75 | 94.6 | 74 | 100
[2] | -0.19 | -7.5 | 39.9 | 1.99 | 98.8
[3] | 1.86 | 2.15 | 64.2 | 44.3 | 101
[4] | 4.4 | 22.1 | 97.2 | 58.3 | 100
[5] | 3.67 | -0.96 | 99.8 | 99.5 | 101
[6] | 3.15 | 1.21 | 7.05 | 7.11 | 96.6
[7] | -8.13 | 11.6 | 98.6 | 98.2 | 101
[8] | -0.36 | 2.91 | 74.2 | 44.6 | 101
[9] | 0.03 | -5.96 | 23.3 | 29.1 | 99.8
[10] | 2.6 | 19.2 | 89.2 | 93.1 | 103
[11] | -15.5 | 1.36 | 98.2 | 99.1 | 101
[12] | 1.28 | 2.15 | 66.6 | 59.1 | 94.4
[13] | -2.82 | 3.62 | 97.2 | 97.5 | 101
[14] | 0.42 | -19.7 | 11.4 | -24.5 | 100

Details | drug sensitivity score
[15] | 29.9
[16] | 5.78
[17] | 18.2
[18] | 32.9
[19] | 30.3
[20] | 6.46
[21] | 32.3
[22] | 20
[23] | 8.84
[24] | 31.1
[25] | 30.4
[26] | 21.3
[27] | 30.6
[28] | 4.39

CCn1c(-c2nonc2N)nc2c(C#CC(C)(C)O)ncc(OC[C@H]3CCCNC3)c21 (max concentration tested 10000 nM)
percent inhibition of viability [%]
Details | 1 nM | 10 nM | 100 nM | 1000 nM | 10000 nM
[1] | -1.22 | -3.93 | -1.94 | 9.38 | 20.1
[2] | -4.48 | -3.46 | -8.79 | -1.49 | 26.3
[3] | -3.45 | -0.24 | -0.07 | 6.49 | 7.82
[4] | -2.25 | 7.79 | 17.3 | 63.7 | 76.9
[5] | -8.01 | -9.66 | 4.32 | 9.43 | 76.3
[6] | -1.14 | -1.15 | 0.26 | 5.9 | 9.45
[7] | -2.46 | -9.24 | -1.71 | 8.35 | 69.8
[8] | -5.57 | 1.4 | -4.57 | -6.32 | -11.7
[9] | 0.15 | -2.81 | 1.43 | 5.52 | -1.32
[10] | -5.47 | -17.8 | -8.99 | 0.96 | 9.13
[11] | -10.1 | -4.39 | -9.15 | 11.5 | 66.5
[12] | -2.15 | 0.74 | -0.26 | 2.64 | -8.44
[13] | -12.7 | -5.26 | 17.9 | 18.4 | 83.5
[14] | 1.15 | 26.6 | -2.76 | -11.1 | -25.3

Details | drug sensitivity score
[15] | 1.58
[16] | 0.93
[17] | 0
[18] | 13.9
[19] | 5.8
[20] | 0
[21] | 5.23
[22] | 0
[23] | 0
[24] | 0
[25] | 5.55
[26] | 0
[27] | 7.29
[28] | 0

C=CC[C@@H]1/C=C(\C)C[C@H](C)C[C@H](OC)[C@H]2O[C@@](O)(C(=O)C(=O)N3CCCC[C@H]3C(=O)O[C@H](/C(C)=C/[C@@H]3CC[C@@H](O)[C@H](OC)C3)[C@H](C)[C@@H](O)CC1=O)[C@H](C)C[C@@H]2OC [Tacrolimus] (max concentration tested 10000 nM)
percent inhibition of viability [%]
Details | 1 nM | 10 nM | 100 nM | 1000 nM | 10000 nM
[1] | -12.2 | -4.97 | -9.06 | -4.26 | -5.39
[2] | -18.9 | -10.1 | -13.5 | 5.35 | 30.1
[3] | -2.54 | -4.56 | 1.9 | 0.69 | 13.5
[4] | -6.89 | -0.55 | -1.59 | -6.35 | 23
[5] | -2.12 | 0.6 | 4.89 | 4.45 | 43.2
[6] | 0.78 | -1.87 | 1.16 | 5.77 | 24.4
[7] | 6.61 | 4.19 | 3.62 | 3.15 | 28.9
[8] | 1.61 | -1.68 | -1.5 | -2.11 | 23.3
[9] | -0.56 | 6.96 | 5.19 | -3.38 | 1.06
[10] | -8.22 | -6.4 | -3.18 | 8.38 | 3.72
[11] | 10.7 | 1.86 | -0.29 | -2.25 | 1.84
[12] | 1.38 | -3.09 | 1.86 | 5.94 | 19.8
[13] | -2.76 | -12.4 | 9.06 | 17.2 | 71.7
[14] | 6.17 | -4.96 | -13.1 | -0.42 | 16.6

Details | drug sensitivity score
[15] | 0
[16] | 2.16
[17] | 0.17
[18] | 0.55
[19] | 2.93
[20] | 1.73
[21] | 1.72
[22] | 0.7
[23] | 0
[24] | 0
[25] | 0
[26] | 1.16
[27] | 6.54
[28] | 0.32

COC(=O)c1ccc2c(c1)NC(=O)/C2=C(\Nc1ccc(N(C)C(=O)CN2CCN(C)CC2)cc1)c1ccccc1 [Nintedanib] (max concentration tested 10000 nM)
percent inhibition of viability [%]
Details | 1 nM | 10 nM | 100 nM | 1000 nM | 10000 nM
[1] | -0.08 | -2.82 | 8.47 | 31 | 100
[2] | -4.93 | 2.39 | -1.05 | 45.4 | 99.4
[3] | -5.39 | -3.23 | -3.31 | 20.3 | 99.6
[4] | -8.99 | 0.01 | 2.16 | 38.1 | 100
[5] | -7.78 | -11 | -5.14 | 38.2 | 98.9
[6] | -2.16 | -1.03 | -3.64 | 7.19 | 99.3
[7] | -15.7 | -1.56 | -14 | 23.9 | 99.2
[8] | -8.95 | -2.57 | -11.3 | -22.3 | 100
[9] | -8.46 | -2.04 | 1.37 | 16.4 | 93.4
[10] | -7.94 | -17.2 | -2.91 | 56.5 | 100
[11] | -18.1 | -18.2 | -5.82 | 5.55 | 99.6
[12] | -4.51 | -2.23 | -3.24 | 20.9 | 99.6
[13] | -8.23 | -15.9 | -15.4 | 47 | 94.9
[14] | 16.6 | 7.57 | -2.75 | -31.8 | 83.2

Details | drug sensitivity score
[15] | 9.6
[16] | 11.3
[17] | 8.76
[18] | 10.7
[19] | 10.6
[20] | 6.61
[21] | 9.18
[22] | 4.45
[23] | 7.87
[24] | 12.3
[25] | 6.33
[26] | 8.84
[27] | 11.1
[28] | 3.37
